Measurements taken from US20040198663A1, “Method of treating cardiac ischemia by using erythropoietin” (priority 2003, published 2004).

Tests used:
Test in all cases: Western analysis of cytosolic and particulate fractions of erythropoietin-treated hearts
Set-up in all cases: species or system rabbit
[1] = tested on: p38 MAP kinase
Experimental: (§1) Western analysis. Hearts from infant rabbits were isolated and aerobically perfused with bicarbonate buffer for 30 minutes at constant pressure, then perfused with erythropoietin for 5 or 15 minutes. The free wall of the left ventricle was excised and immediately freeze-clamped between stainless steel tongs pre-cooled with liquid nitrogen. Frozen myocardial tissue samples were powdered in a pre-cooled stainless steel mortar and pestle.
(§2) The powdered tissue was then processed to obtain cytosolic and particulate fractions for Western analysis, as described in Raflee et al., Circulation 106:239-45 (2002). Powdered tissue was homogenized in sample buffer (50 mM Tris pH 7.5, 5 mM EDTA, 10 mM EGTA, 10 mM benzamidine, 10 μg/ml pepstatin A, 50 μg/ml PMSE, 10 μg/ml aprotinin, 10 μg/ml leupeptin, and 0.3% β-mercaptoenthanol) on ice for 50 strokes. Nuclei and cellular debris was removed by centrifugation (1000 g at. 4° C. for 15 min). The supernatant was transferred to a new cold 1.5 mL microcentrifuge tube. The cytosolic and particulate portions of total cellular proteins were separated by a 30-minute centrifugation at 45000 g. Protein concentrations were determined by the method of Bradford. Equal amounts of protein were analyzed by SDS-PAGE and Western blotting by using either isoform-specific antibodies for phospho-PKC detection or specific antibodies against phosphorylated and non-phosphorylated p38 MAPK, JNK, and p42/44 MAPK. The blots were developed by ECL. Densitometry was performed on each sample and analyzed with the use of NIH image software. Rafiee et al., Circulation 106:239-45 (2002).
(§3) Cytosolic and particulate fractions from erythropoietin-treated and untreated hearts were prepared. Protein content for PKCε, p38 MAP kinase, p42/44 MAP kinase and JUN kinase was determined by SDS-PAGE and Western blot analysis using monoclonal antibodies specific for PKCε, phosphorylated p38 MAP kinase (Thr180/Tyr182), p42/44 MAP kinase (Thr202/Tyr204), and JUN kinase (Thr183/Tyr185). Non-phosphorylated antibodies were used to ensure equal loading of proteins.

[2] = tested on: JUN kinase
Experimental: as §1, §2, §3

[3] = tested on: p42/44 MAP kinase
Experimental: as §1, §2, §3

[4] = tested on: PKCε; conditions: erythropoietin 1.0 U/ml
Experimental: as §1, §2, §3

[5] = erythropoietin 1.0 U/ml for 5 minutes
[6] = erythropoietin 1.0 U/ml for 15 minutes

erythropoietin: Recombinant human erythropoietin, a glycoprotein hormone, obtained from Cell Science, Inc.
treatment time at which phosphorylation of p38 MAP kinase was maximized ([1]; erythropoietin 1.0 U/ml): 5 min
phosphorylation of p38 MAP kinase [1, 5]: phosphorylation of p38 MAP kinase in the cytosolic fraction but not in the particulate fraction
extent of phosphorylation of p38 MAP kinase [1, 6]: declined
treatment time at which phosphorylation of JUN kinase was maximized ([2]; erythropoietin 1.0 U/ml): 5 min
phosphorylation of JUN kinase [2, 5]: phosphorylation of JUN kinase in the cytosolic fraction but not in the particulate fraction
phosphorylation of JUN kinase in the cytosolic fraction [2, 6]: declined
treatment time at which phosphorylation of p42/44 MAP kinase was maximal ([3]; erythropoietin 1.0 U/ml): 15 min
phosphorylation of p42/44 MAP kinase [3, 5]: remarkable phosphorylation of p42/44 MAP kinase in the cytosolic fraction with minor phosphorylation in the particulate fraction
phosphorylation of p42/44 MAP kinase [3, 6]: enhanced phosphorylation of p42/44 MAP kinase in the cytosolic fraction and in the particulate fraction
treatment time at which phosphorylation of PKCε was maximal [4]: 15 min
PKCε activation and translocation ([4]; 5 or 15 minutes): activated and translocated from the cytosolic to the particulate fraction
